Measurements taken from article PMC5853558, “De novo identification of lipid II binding lipopeptides with antibacterial activity against vancomycin-resistant bacteria” (Chemical Science, 2017).
*1 amine or outer side, *2 acyl side, *3 side chain or, on linkers, in order; H or OH if unused. Where a SMILES comes first, the peptide text is derived from it. Bridges are numbered along the chain shown (N, C = ends). Where no end group is shown, it is not given here. [ ]: non-standard residue; d: D form. The star is where a group is joined. TBMB = c1c(C[*:1])cc(C[*:3])cc1C[*:2]; NHtetradecyl = CCCCCCCCCCCCCCN*

Tests used:
C55-PP = assay: Antagonization assay with C55-PP; assay type: cell-based, M. luteus; set-up: key to Result with antagonist C55-PP: +: antagonization of antibiotic activity; -: no antagonization of antibiotic activity; conditions: Supplemental table S10; peptide at 4x MIC, M. luteus, 16 h at 30°C, growth observed visually
Procedure: (§1) To assess the role of lipid II in the mode of action of the lipopeptides a lipid II antagonization assay was employed.[18],[33] This assay was performed by premixing P8-D-C10 or the optimized P8-D-(S6R, R15A)-C10 with an excess of lipid II prior to addition of a live culture of M. luteus. […] To probe the stereochemical aspects of lipid II recognition by the optimized P8-D-(S6R, R15A)-C10 lipopeptide we also prepared and tested the corresponding enantiomeric L-peptide species P8-L-(S6R, R15A)-C10. […] Given that lipid II is a chiral biomolecule we had expected the enantiomeric lipopeptides to have different activities based on the assumption that they would interact differently with lipid II. To further investigate this phenomenon we employed the same lipid II antagonization assay described above. […] To explain this observation we hypothesize that the two enantiomeric peptides interact primarily with the pyrophosphate moiety of lipid II and are therefore less influenced by the chiral elements present elsewhere in the lipid II molecule. The pyrophosphate group is known to be a binding site for many natural occurring lipid II binding peptides.[15],[16] […] To test the hypothesis that both the P8-D-(S6R, R15A)-C10 and P8-L-(S6R, R15A)-C10 lipopeptides interact with the pyrophosphate moiety we performed an additional antagonizaiton experiment using C55-PP.
(§2) Section 4 Biological and biochemical experiments
(§3) 4.1 Minimum inhibitory concentration assay
(§4) MIC values were determined by using the broth microdilution method. Peptides were dissolved first in DMSO and diluted with broth so that the final peptide concentration was 1024 µg/ml and the DMSO concentration was 4%. Peptide serial dilutions were made in TSB in a polypropylene 96-wells plate using 50 µl volumes. An overnight culture of the organism of interest was diluted to and OD600 of 0.01 and grown until they reach 0.5. The culture was then diluted to 1 x 10^6 CFU/ml and 50 µl of this suspension was added to each well. The highest concentrations were then 512 µg/ml peptide and 2% DMSO. The plates were incubated at the preferred growth temperature of the organism that was used and 250 rpm. […] When […]
(§5) determining the MICs of the lipidated peptides, the lipopeptides were first dissolved in DMSO and diluted with TSB so that the peptide concentration was 128 µg/ml and the DMSO concentration was 4%. After inoculation the highest peptide concentration evaluated was 64 µg/ml and the DMSO concentration was 2%. A DMSO control was tested for each strain to ensure the DMSO did not affect the growth of the particular strain. […]
(§6) 4.4 Antagonization assays
(§7) Stock solutions of each peptide antibiotic were prepared so that their final concentration in the assay would be 4x MIC. Peptides were transferred to a 96 wells plate and lipid II or C15-P (farnesyl-phosphate) was added at 4 molar equivalents in a final volume of 50 µl. Each well received 50 µl of bacterial suspension (M. luteus) at 1 x 10^6 CFU/ml and the plates were incubated for 16 h at 250 rpm and 30°C. Growth was observed visually (see supplemental table S10 for results).

M. luteus (NCTC2665) = assay: microbe, parasite or virus in culture; assay type: cell-based, Micrococcus luteus
Method in brief: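 Dilution series of peptide in TSB, up to 512 µg/ml final (lipopeptides up to 64 µg/ml), DMSO 2% final. Mid-log inoculum suspension at 1 x 10^6 CFU/ml, equal volume per well. Incubation at the strain's growth temperature with shaking.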

E. faecium (VRE155) = assay: microbe, parasite or virus in culture; assay type: cell-based, Enterococcus faecium
Procedure: as §2, §3, §4, §5

E. faecium (E980) = assay: microbe, parasite or virus in culture; assay type: cell-based, Enterococcus faecium
Procedure: as §2, §3, §4, §5

E. faecium (VRE2297) = assay: microbe, parasite or virus in culture; assay type: cell-based, Enterococcus faecium
Procedure: as §2, §3, §4, §5

E. faecium (VRE0321) = assay: microbe, parasite or virus in culture; assay type: cell-based, Enterococcus faecium
Procedure: as §2, §3, §4, §5

E. faecium (VRE7391) = assay: microbe, parasite or virus in culture; assay type: cell-based, Enterococcus faecium
Procedure: as §2, §3, §4, §5

[1] = read-out: Kd for undecaprenyl pyrophosphate (C55-PP); cited from earlier work
lipid II = assay: Lipid II antagonization assay; assay type: cell-based, M. luteus; set-up: key to Result with antagonist Lipid II: +: antagonization of antibiotic activity; -: no antagonization of antibiotic activity
Procedure: as §1, §2, §3, §4, §5, §6, §7

B. subtilis (168) = assay: microbe, parasite or virus in culture; assay type: cell-based
Procedure: as §2, §3, §4, §5

S. epidermidis (1587) = assay: microbe, parasite or virus in culture; assay type: cell-based
Procedure: as §2, §3, §4, §5

S. pyogenes (5448) = assay: microbe, parasite or virus in culture; assay type: cell-based
Procedure: as §2, §3, §4, §5

[2] = test system: C15-P (farnesyl-phosphate); assay: Antagonization assay with C15-P (negative control); assay type: cell-based; set-up: key: +: antagonization of antibiotic activity; -: no antagonization of antibiotic activity; conditions: Supplemental table S10, peptide at 4x MIC, 4 molar equivalents, M. luteus, 16 h at 30°C, growth observed visually
Procedure: as §2, §3, §4, §5, §6, §7
Supplemental table S10. Lipid II antagonization assay results
Result with indicated antagonista
Antibiotic compound Lipid II C55-PP C15-Pb […]
a + = antagonization of antibiotic activity; - = no antagonization of antibiotic activity; b C -P was used as a negative […]
control (C15-P is a watersoluble analogue of the lipid II precursor undecaprenol phosphate).
4.6 Scanning Electron Microscopy
E. faecium E155 was inoculated at an OD600nm of 0.05 into 300 µL of cation adjusted TSB containing P8-D-(S6R, R15A)-C10 or nisin at (both a 2x MIC) along with 1% glucose and 1%
DMSO. An untreated culture was used as control. Following overnight incubation (ca. 16 hr) bacterial cells were fixed for 15 minutes with 1% (v/v) glutaraldehyde in phosphate buffered saline (PBS) at room temperature on poly-L-lysine covered glass slides (12 mm diameter). […]

Sheep blood = assay: Hemolysis assay; assay type: cell-based; conditions: Supplemental table S7; sheep blood cells in PBS, 32 µg/ml, 1 h at 37°C, absorption at 414 nm
Procedure: Sheep blood in Alsever’s solution (2 mL) was diluted with PBS (13 mL) and centrifuged (2,000 RPM, 5 min). The supernatant was discarded and the cells were washed with another 13 mL of PBS and centrifuged. Washing was continued until the supernatant was clear. After the final wash the supernatant was discarded and the packed cells were kept on ice. Serial dilutions of each peptide were made in 50 µl PBS with the highest tested concentration 64 µg/mL in PBS, 2%
DMSO. The packed cells (150 µL) were suspended in PBS (10 mL) and 50 µL of this suspension was added to each well. A well plate column containing 0.1% triton x-100 in DI water was used as the 100% lysis control and a second column with PBS (with 2% DMSO) served as the 0% lysis control. After incubation at 37°C for 1h the plates were centrifuged (2,000 RPM, 5 min) and 25 µL of the supernatant was added to 100 µL DI water in a flat-bottom 96-wells plate (polystyrene). […]

[3] = footnote to Supplemental table S7; observation in words during MIC experiments
[4] = Supplemental table S9, MIC values of Table 2 expressed in µM
[5] = Supplemental table S9, vancomycin-resistant isolate, MIC values of Table 2 expressed in µM
[6] = Table 2, vancomycin-resistant isolate from hospitalized patients, broth microdilution in TSB, 16 h, highest tested 64 µg/ml
[7] = Table 2, broth microdilution in TSB, 16 h, read visually, highest tested 64 µg/ml
[8] = Supplemental table S7, P8 with varying lipids, broth microdilution

Which results are given for “Nisin (ITSISLCTPGCKTGALMGCNMKTATCHCSIHVSK; not fully specified (some residues, bridges); also: lantibiotic nisin-A: lanthionine rings and dehydro residues not placed; UniProt P13068 24-57, looked up) [reference compound]”?
Result with antagonist C55-PP (C55-PP): +; MIC M. luteus (NCTC2665) (M. luteus (NCTC2665); [4]): < 0.3 µM; MIC M. luteus (NCTC2665) (M. luteus (NCTC2665); Table 2, broth microdilution in TSB, 16 h, read visually, highest tested 64 µg/ml, 2% DMSO): <1 μg mL^–1; MIC E. faecium (VRE155) (E. faecium (VRE155); Supplemental table S6, lipidated phage display hits, n.a. = not active, highest tested conc 64 µg/ml): < 1 µg/mL; MIC E. faecium (VRE155) (E. faecium (VRE155); [5]): < 0.3 µM; MIC E. faecium (VRE155) (E. faecium (VRE155); [6]): <1 μg mL^–1; MIC E. faecium (E980) (E. faecium (E980); [4]): 9.5 µM; MIC E. faecium (E980) (E. faecium (E980); [7]): 32 μg mL^–1; MIC E. faecium (VRE2297) (E. faecium (VRE2297); [5]): 2.4 µM; MIC E. faecium (VRE2297) (E. faecium (VRE2297); [6]): 8 μg mL^–1; MIC E. faecium (VRE0321) (E. faecium (VRE0321); [5]): 0.3 µM; MIC E. faecium (VRE0321) (E. faecium (VRE0321); [6]): 1 μg mL^–1; MIC E. faecium (VRE7391) (E. faecium (VRE7391); [5]): 0.6 µM; MIC E. faecium (VRE7391) (E. faecium (VRE7391); [6]): 2 μg mL^–1; Kd [1]: 133 nM; Result with antagonist Lipid II (lipid II; Supplemental table S10, peptide at 4x MIC, antagonist at 4 molar equivalents, M. luteus 1 x 10^6 CFU/ml, 16 h at 30°C, growth observed visually): +; Effect of pre-incubation with lipid II on antibacterial activity (lipid II; premixed with an excess of lipid II before addition of a live culture of M. luteus): antagonization of antibacterial activity; MIC B. subtilis (168) (B. subtilis (168); [4]): 1.2 µM; MIC B. subtilis (168) (B. subtilis (168); [7]): 4 μg mL^–1; MIC S. epidermidis (1587) (S. epidermidis (1587); [4]): 1.2 µM; MIC S. epidermidis (1587) (S. epidermidis (1587); [7]): 4 μg mL^–1; MIC S. pyogenes (5448) (S. pyogenes (5448); [4]): < 0.3 µM; MIC S. pyogenes (5448) (S. pyogenes (5448); [7]): <1 μg mL^–1; Result with antagonist C15-P [2]: -

For CCCCCCCCCCCCCCNC(=O)CNC(=O)[C@H]1CSCc2cc3cc(c2)CSC[C@@H](NC(=O)[C@@H](CC(C)C)NC(=O)[C@@H](CC(C)C)NC(=O)[C@@H](CO)NC(=O)[C@@H](CCC(N)=O)NC(=O)[C@@H](CC(C)C)NC(=O)[C@@H](CC(C)C)NC(=O)[C@H](NC(=O)[C@@H](C)N)CSC3)C(=O)N2CCC[C@@H]2C(=O)N[C@H](Cc2ccc(O)cc2)C(=O)N[C@H](CO)C(=O)N[C@H]([C@H](C)O)C(=O)N[C@H](Cc2c[nH]cn2)C(=O)N[C@H](CCCNC(=N)N)C(=O)N1 [Peptide P8-D-C14] (H-[dA][dC][dL][dL][dQ][dS][dL][dL][dC][dP][dY][dS][dT][dH][dR][dC]G-NHtetradecyl; linker 2-9-16 via TBMB; N-terminus assumed), which “Hemolysis 32 µg/ml (after 1 h)” value (Sheep blood) is on record?
The value was 12%.

And the “MIC M. luteus” value (M. luteus (NCTC2665); [8])?
Its value is 4 to 64 µg/mL.

And the “MIC VRE E155” value (E. faecium (VRE155); [8])?
Its value is 4 to 64 µg/mL.

What about the “solubility of the peptide” value [3] of the same compound?
Its value is “poor”.
